Assay results taken from patent publication US11273172B2, “Synergistic combination of oligonucleotides and chemotherapeutic for treating cancer” (THE BOARD OF TRUSTEES OF THE UNIVERSITY OF ILLINOIS, priority 2017, dated 2022).
Where “and” joins values, the source holds several entries; their conditions need not be identical. Equal values may be shown once.

Experiments:
Test in all cases: MTT cell death assay, chemotherapeutic with and without MADD siRNA knockdown
Type in all cases: cell-based
[1] = test system: AGS gastric adenocarcinoma cells; details: siRNA 10 nM
Method: (§1) Cells are cultured and maintained at 37° C. in a humidified atmosphere containing 5% CO2 as described above. […] After 12-18 hours (Day 1), cells are transfected with Scramble or MADD siRNA at 10 nM concentration. The sequences of siRNAs (double-stranded) used are:
(§2) On Day 4, when cells are properly adhered and retained their shape in 96-well plates, drugs are added. All drugs are diluted in complete media on the same day prior to the addition to the cells. In untreated cells, media is replaced with complete media. Two hundred μl volume of media (with or without drugs) is used for the drug treatment assay. Plates are incubated 24 hours, 48 hours and 72 hours at 37° C. in humidified CO2 incubator.
(§3) An MTT assay is performed to determine relative survival after drug treatment as described above. MTT (3-[4,5-Dimethylthiazol-2-yl]-2,5-diphenyltetrazolium bromide; Thiazolyl blue) is purchased from Sigma Aldrich (Cat number: M5655). […] Ten μl of MTT solution is added per well of 96-well plate. Plates are incubated for 2 hours at 37° C. in the humidified CO2 incubator. After 2 hours, media is aspirated using vacuum inside the biosafety hood. Purple colored crystals formed in viable cells are dissolved by adding 100 μl of Dimethyl sulfoxide (Thermo Fisher Scientific; Cat number D128-500) Plates are kept on shaker for 10 minutes for compete dissolution of crystals and absorbance is recorded at 595 nm using Bio-Rad iMark microplate reader. Data is analyzed in MICROSOFT EXCEL® software. Relative survival is calculated with respect to absorbance of control (untreated cells) to determine the effect of transfection as well as combination treatment.
(§4) Each data set takes into account any spontaneous cell death which is observed upon transfection with Scramble siRNA; the amount of spontaneous cell death from Scramble siRNA transfection (baseline) is subtracted from the amount of cell death observed in each siRNA transfection reaction to yield a Net Percent (Net %) cell death after accounting for Scrambled siRNA-induced cell death.
(§5) Cells are cultured and maintained at 37° C. in a humidified atmosphere containing 5% CO2 as described above. […] After 12-18 hours (Day 1), cells are transfected with Scramble or MADD siRNA at 10 nM concentration. The sequences of siRNAs (double stranded) used are:
as §3, with “D128-500).” for “D128-500)”
as §2, with “24 h,” for “24 hours,”, “48 h” for “48 hours”

[2] = test system: PLC/PRF/5 hepatic cancer cells; details: siRNA 10 nM
Method: as §1, §2, §3, §4, §5
as §3, with “D128-500).” for “D128-500)”
as §2, with “24 h,” for “24 hours,”, “48 h” for “48 hours”

[3] = test system: CFPAC-1 pancreatic cancer cells; details: siRNA 10 nM, 72 hours post TRAIL treatment
Method: (§6) Cells are cultured and maintained at 37° C. in a humidified atmosphere containing 5% CO2 as described above. On Day 0, Cells are seeded in […] tissue culture dishes (Corning; Cat Number: 353003) to attain 60-70% confluence. In parallel, cells are also seeded in one 96-well plate (Corning; Cat number: 353072) for analysis of survival before reseeding. After 12-18 hours (Day 1), cells are transfected with Scramble or MADD siRNA at 10 nM concentration. The sequences of siRNAs (double stranded) used are:
as §2, with “24 h,” for “24 hours,”, “48 h” for “48 hours”
(§7) An MTT assay is performed to determine relative survival after drug treatment as described above. MTT (3-[4,5-Dimethylthiazol-2-yl]-2,5-diphenyltetrazolium bromide; Thiazolyl blue) is purchased from Sigma Aldrich (Cat number: M5655). MTT is dissolved in sterile DPBS at the concentration of 5 mg/ml and filtered through […] syringe filter (Corning; Cat number: 431220). Ten μl of MTT solution is added per well of 96-well plate. Plates are incubated for 2 hours at 37° C. in the humidified CO2 incubator. After 2 hours, media is aspirated using vacuum inside the biosafety hood. Purple colored crystals formed in viable cells are dissolved by adding 100 μl of Dimethyl sulfoxide (Thermo Fisher Scientific; Cat number D128-500) Plates are kept on shaker for 10 minutes for compete dissolution of crystals and absorbance is recorded at 595 nm using Bio-Rad iMark microplate reader. Data is analyzed in MICROSOFT EXCEL® software. Relative survival is calculated with respect to absorbance of control (untreated cells) to determine the effect of transfection as well as combination treatment.
as §4

[4] = test system: HCT116 colon cancer cells; details: TRAIL 50 ng/ml, siRNA 10 nM, 48 hours post TRAIL treatment
Method: as §6
as §2, with “24 h,” for “24 hours,”, “48 h” for “48 hours”
as §7, §4

[5] = test system: SKOV3 ovarian cancer cells; details: TRAIL 50 ng/ml, siRNA 10 nM, 48 hours post TRAIL treatment
Method: as §6
as §2, with “24 h,” for “24 hours,”, “48 h” for “48 hours”
as §7, §4

[6] = test system: 8505C thyroid cancer cells; details: siRNA 10 nM
Method: as §5
as §2, with “24 h,” for “24 hours,”, “48 h” for “48 hours”
as §3, §4, §2

[7] = Sorafinib 0.625 μM, 48 hours post Sorafinib treatment
[8] = Sorafinib 0.375 μM, 24 hours post Sorafinib treatment
[9] = 5-flurouracil 25 μM, 72 hours post 5-flurouracil treatment
[10] = Gemcitabine 1 μM, 48 hours post Gemcitabine treatment
[11] = TRAIL 6.25 ng/ml, 72 hours post TRAIL treatment
[12] = Cisplatin 1.875 μM, 24 hours post Cisplatin treatment
[13] = Gemcitabine 0.03125 μM, 24 hours post Gemcitabine treatment
[14] = TRAIL 50 ng/ml, 24 hours post TRAIL treatment
[15] = 8505C thyroid cancer cells, TRAIL 6.25 ng/ml, 48 hours post TRAIL treatment
[16] = 8505C, Cisplatin 2.5 μM, 48 hours post Cisplatin treatment
[17] = 8508C thyroid cancer cells, TRAIL 6.25 ng/ml, 48 hours post TRAIL treatment

## CNC(=O)c1cc(Oc2ccc(NC(=O)Nc3ccc(Cl)c(C(F)(F)F)c3)cc2)ccn1 [Sorafinib]
[1]; [7]
  Net % cell death after accounting for Scrambled siRNA: 12%
  Observed % Cell death: 12%
[2]; [8]
  Net % cell death after accounting for Scrambled siRNA: 13%
  Observed % Cell death: 13%

## MADD siRNA: siRNA targeting exon 13L of the MADD splice variant of the IG20 gene; SEQ ID NO: 4, 5′-GAUUGUCAUAGAUUCGCCGTT-3′ (chemistry not given here)
[1]; [9]
  Observed % Cell death: 20%
[1]; [10]
  Net % cell death after accounting for Scrambled siRNA: 5% and 14 − 9 = 5%
  Observed % Cell death: 14%
[1]; [7]
  Net % cell death after accounting for Scrambled siRNA: 5% and 14 − 9 = 5%
  Observed % Cell death: 14%
[1]; [11]
  Observed % Cell death: 20%
[2]; [12]
  Net % cell death after accounting for Scrambled siRNA: 20% and 25 − 5 = 20%
  Observed % Cell death: 25%
[2]; [13]
  Net % cell death after accounting for Scrambled siRNA: 20% and 25 − 5 = 20%
  Observed % Cell death: 25%
[2]; [8]
  Net % cell death after accounting for Scrambled siRNA: 20% and 25 − 5 = 20%
  Observed % Cell death: 25%
[2]; [14]
  Net % cell death after accounting for Scrambled siRNA: 20% and 25 − 5 = 20%
  Observed % Cell death: 25%
[3]; TRAIL 6.25 ng/ml
  Net % cell death after accounting for Scrambled siRNA: 53% and 53 − 0 = 53%
  Observed % Cell death: 53%
[3]; TRAIL 12.5 ng/ml
  Net % cell death after accounting for Scrambled siRNA: 53% and 53 − 0 = 53%
  Observed % Cell death: 53%
[4]
  Observed % Cell death: 43%
[5]
  Net % cell death after accounting for Scrambled siRNA: 29% and 38 − 9 = 29%
  Observed % Cell death: 38%
[6]; [15]
  Net % cell death after accounting for Scrambled siRNA: 39% and 49 − 10 = 39%
[6]; [16]
  Net % cell death after accounting for Scrambled siRNA: 39% and 49 − 10 = 39%
  Observed % Cell death: 49%
[6]; [17]
  Observed % Cell death: 49%

## Scrambled siRNA: non-specific Scramble siRNA, negative control; SEQ ID NO: 5, 5′-UUGCUAAGCGUCGGUCAAUTT-3′ (chemistry not given here)
[1]; [9]
  Net % cell death after accounting for Scrambled siRNA: 17 − 17 = 0%
  Observed % Cell death: 17%
[1]; [10]
  Net % cell death after accounting for Scrambled siRNA: 9 − 9 = 0%
  Observed % Cell death: 9%
[1]; [7]
  Net % cell death after accounting for Scrambled siRNA: 9 − 9 = 0%
  Observed % Cell death: 9%
[1]; [11]
  Net % cell death after accounting for Scrambled siRNA: 17 − 17 = 0%
  Observed % Cell death: 17%
[2]; [12]
  Net % cell death after accounting for Scrambled siRNA: 5 − 5 = 0%
  Observed % Cell death: 5%
[2]; [13]
  Net % cell death after accounting for Scrambled siRNA: 5 − 5 = 0%
  Observed % Cell death: 5%
[2]; [8]
  Net % cell death after accounting for Scrambled siRNA: 5 − 5 = 0%
  Observed % Cell death: 5%
[2]; [14]
  Net % cell death after accounting for Scrambled siRNA: 5 − 5 = 0%
  Observed % Cell death: 5%
[3]; TRAIL 6.25 ng/ml
  Net % cell death after accounting for Scrambled siRNA: 17 − 17 = 0%
  Observed % Cell death: 0%
[3]; TRAIL 12.5 ng/ml
  Net % cell death after accounting for Scrambled siRNA: 0 − 0 = 0%
  Observed % Cell death: 0%
[4]
  Net % cell death after accounting for Scrambled siRNA: 27 − 27 = 0%
  Observed % Cell death: 27%
[5]
  Net % cell death after accounting for Scrambled siRNA: 9 − 9 = 0%
  Observed % Cell death: 9%
[6]; [15]
  Net % cell death after accounting for Scrambled siRNA: 10 − 10 = 0%
[6]; [16]
  Net % cell death after accounting for Scrambled siRNA: 10%
  Observed % Cell death: 10%
[6]; [17]
  Observed % Cell death: 10%

B1: TRAIL: cytotoxic protein which induces apoptosis in tumor cells, but not in normal cells (protein, UniProt P50591 1-281, looked up)
Tumor necrosis factor ligand …: MAMMEVQGGPSLGQTCVLIVIFTVLLQSLCVAVTYVYFTNELKQMQDKYSKSGIACFLKEDDSYWDPNDEESMNSPCWQVKWQLRQLVRKMILRTSEETISTVQEKQQNISPLVRERGPQRVAAHITGTRGRSNTLSSPNSKNEKALGRKINSWESSRSGHSFLSNLHLRNGELVIHEKGFYYIYSQTYFRFQEEIKENTKNDKQMVQYIYKYTSYPDPILLMKSARNSCWSKDAEYGLYSIYQGGIFELKENDRIFVSVTNEHLIDMDHEASFFGAFLVG
[1]; [11]
  Net % cell death after accounting for Scrambled siRNA: 7%
  Observed % Cell death: 7%
[2]; [14]
  Net % cell death after accounting for Scrambled siRNA: 0%
  Observed % Cell death: 0%
[3]; TRAIL 6.25 ng/ml
  Net % cell death after accounting for Scrambled siRNA: 30%
  Observed % Cell death: 30%
[3]; TRAIL 12.5 ng/ml
  Net % cell death after accounting for Scrambled siRNA: 8%
  Observed % Cell death: 8%
[4]
  Net % cell death after accounting for Scrambled siRNA: 27%
  Observed % Cell death: 27%
[5]
  Net % cell death after accounting for Scrambled siRNA: 13%
  Observed % Cell death: 13%
[6]; [15]
  Net % cell death after accounting for Scrambled siRNA: 6.56% and 7%
[6]; [17]
  Observed % Cell death: 7%
